Measurements: patent US20060223889A1 (priority 2003, published 2006)

Tests used:
[1] = physchem; conditions: pH 7, water
[2] = Stability in aqueous solution; type: physicochemical

- solubility [1]: ≤ 1300 µg/mL
- hydrolysis when dissolved in water [2]: readily hydrolyses
Compound: CS(=O)(=O)c1ccc([C@@H](O)[C@@H](CF)NC(=O)C(Cl)Cl)cc1 [Florfenicol, D-(threo)-1-p-methylsulfonyl phenyl-2-dichloroacetamido-3-fluoro-1-propanol]
